{"source": "paper PMC8765048", "about": "(JCI Insight, 2022)", "key": {"[1]": {"tested_on": "SARS-CoV-2 B.1.429 (Epsilon)", "assay": "microbe, parasite or virus in culture", "format": "cell-based"}, "[2]": {"tested_on": "Huh-7 cells", "assay": "Acute mitochondrial or glycolytic stress assay (Seahorse XF96e)", "format": "cell-based, human", "excerpt": "Other important measures of cell viability are mitochondrial integrity, function, cardiotoxicity, and genotoxicity, since other nucleoside analogs may vary in their effect on these endpoints ([29], [30]). Dyes commonly used to assess mitochondrial integrity are MitoTracker Green (MTG), a mitochondrial stain mostly localized to mitochondria based on hydrophobicity, and N-alkyl acridine orange (NAO), which binds to mitochondrial cardiolipin. Untreated Huh-7 cells and Huh-7 cells treated for 5 days with 100 nM sangivamycin were stained with MTG and NAO and imaged by fluorescence microscopy. […] To more quantitatively assess the impact of sangivamycin on mitochondrial integrity, we evaluated the effect of sangivamycin on mitochondrial metabolic function as well as cytoplasmic glycolytic function. The XF96e Seahorse instrument was used to quantify the oxygen consumption rate (OCR) over time in untreated control and sangivamycin-treated Huh-7 cells. […] Standard metabolic endpoints quantified with or without sangivamycin included sequential treatment and washout of cell cultures with oligomycin (ATP synthase inhibitor), carbonyl cyanide 4-(trifluoromethoxy)phenylhydrazone (FCCP; a proton gradient uncoupler), and antimycin A + rotenone (complex I and III blockers) (Supplemental Figure 7). […]"}, "[3]": {"settings": "Severe acute respiratory syndrome coronavirus 2, Calu-3, 24 h"}}, "note": "pIC50: −log10 of the molar value.", "data": [{"compound": "NC(=O)c1cn([C@@H]2O[C@H](CO)[C@@H](O)[C@H]2O)c2ncnc(N)c12", "note": "[Sangivamycin, sangivamycin]", "values": [{"measurement": "SI (selectivity index, CC50/IC50)", "setting": "[1]; B.1.429 (Epsilon), Calu-3 cells", "result": ">8.4"}, {"measurement": "pIC50", "setting": "[1]; [3]", "result": 7.15}, {"measurement": "IC90", "setting": "[1]; [3]", "result": 234, "unit": "nM"}, {"measurement": "Acute effects on mitochondrial and glycolytic stress (Seahorse measurements)", "setting": "[2]; 0.05–5 μM", "result": ">5", "unit": "µM"}, {"measurement": "oxygen consumption rate (OCR) relative to untreated control cells", "setting": "[2]; up to 5 μM", "result": "did not significantly change the OCR"}]}]}
